Measurements published in ChEMBL document CHEMBL1201862, “PubChem BioAssay data set” (2004).
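Grown in 96-well plates, cells were treated for 48 hours with each compound at five concentrations. Insufficient inhibition: endpoint recorded as highest concentration tested. The concentration for 50% growth inhibition is given as GI50.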 Calls of active or inactive are those of the source. Rule as the data show it: active = GI50 up to about 1.1 µM and inactive = higher.

How the values were obtained:
Assay in all cases: DTP human tumour cell line panel, 48 h
OVCAR-4 = test system: OVCAR-4
SK-MEL-2 = test system: SK-MEL-2
786-0 = test system: 786-0
KM12 = test system: KM12
NCI-H226 = test system: NCI-H226
A498 = test system: A498
UO-31 = test system: UO-31
EKVX = test system: EKVX
SNB-19 = test system: SNB-19
K562 = test system: K562
OVCAR-5 = test system: OVCAR-5
SW-620 = test system: SW-620
HOP-92 = test system: HOP-92
HOP-62 = test system: HOP-62
UACC-62 = test system: UACC-62
M14 = test system: M14
BT-549 = test system: BT-549
SF-539 = test system: SF-539
NCI-H460 = test system: NCI-H460

Row | SMILES | GI50 (OVCAR-4) | GI50 (SK-MEL-2) | GI50 (786-0) | GI50 (KM12) | GI50 (NCI-H226) | GI50 (A498) | GI50 (UO-31) | GI50 (EKVX) | GI50 (SNB-19) | GI50 (K562) | GI50 (OVCAR-5) | GI50 (SW-620) | GI50 (HOP-92) | GI50 (HOP-62) | GI50 (UACC-62) | GI50 (M14) | GI50 (BT-549) | GI50 (SF-539) | GI50 (NCI-H460)
1 | CCOP(=O)(OCC)/C(C#N)=C/c1cnc(-c2ccccc2)[nH]1 | > 100 µM (inactive) | > 100 µM (inactive) | > 100 µM (inactive) | > 100 µM (inactive) | > 100 µM (inactive) | > 100 µM (inactive) | > 100 µM (inactive) | > 100 µM (inactive) | > 100 µM (inactive) | > 100 µM (inactive) | > 100 µM (inactive) | > 100 µM (inactive) | > 100 µM (inactive) | > 100 µM (inactive) | > 100 µM (inactive) | > 100 µM (inactive) | > 100 µM (inactive) | 0.0887 µM (active) | > 100 µM (inactive)
2 | COC(=O)c1sc2c(Cl)c(Cl)sc2c1Cl | > 100 µM (inactive) | > 100 µM (inactive) | 43.8 µM (inactive) | > 100 µM (inactive) | > 100 µM (inactive) | > 100 µM (inactive) | > 100 µM (inactive) | > 100 µM (inactive) | > 100 µM (inactive) | > 100 µM (inactive) | > 100 µM (inactive) | > 100 µM (inactive) | > 100 µM (inactive) | 30.7 µM (inactive) | > 100 µM (inactive) | > 100 µM (inactive) | > 100 µM (inactive) | 66.7 µM (inactive) | > 100 µM (inactive)
3 | COC(=O)[C@H]1[C@@H](O)[C@@]2(O)c3c(OC)cc(OC)cc3O[C@@]2(c2ccc3c(c2)OCO3)[C@@H]1c1ccccc1 | 0.0149 µM (active) | 0.0207 µM (active) | 0.00625 µM (active) | < 0.005 µM (active) | 0.0136 µM (active) | 0.0144 µM (active) | 0.00604 µM (active) | 0.017 µM (active) | < 0.005 µM (active) | < 0.005 µM (active) | 0.00953 µM (active) | < 0.005 µM (active) | 0.0408 µM (active) | 0.00879 µM (active) | 0.0222 µM (active) | 0.00603 µM (active) | 0.0219 µM (active) | < 0.005 µM (active) | < 0.005 µM (active)
4 | COC(=O)c1ccc(NCC2=CC(=O)c3ccccc3C2=O)cc1 | 14.2 µM (inactive) | 18.9 µM (inactive) | 19.3 µM (inactive) | 15.4 µM (inactive) | 16.4 µM (inactive) | 24.2 µM (inactive) | 16.1 µM (inactive) | 21.1 µM (inactive) | 31.4 µM (inactive) | 3.44 µM (inactive) | 21.6 µM (inactive) | 22.2 µM (inactive) | 2.77 µM (inactive) | 16.2 µM (inactive) | 13.6 µM (inactive) | 17.8 µM (inactive) | 20 µM (inactive) | 23.4 µM (inactive) | 18.2 µM (inactive)
5 | COc1cccc2c1Cc1cc(-c3ccccc3)[n+](C)n1-2 | 3.19 µM (inactive) | 17.5 µM (inactive) | 7.24 µM (inactive) | 11.5 µM (inactive) | 11.7 µM (inactive) | 31.5 µM (inactive) | 22.5 µM (inactive) | 1.5 µM (inactive) | 28.9 µM (inactive) | 3.26 µM (inactive) | 23.9 µM (inactive) | 6.1 µM (inactive) | 13.7 µM (inactive) | 42.3 µM (inactive) | 15 µM (inactive) | 8.43 µM (inactive) | 22.5 µM (inactive) | 5.4 µM (inactive) | 14.5 µM (inactive)
6 | COc1cc2c3cc1Oc1c(O)c(OC)cc4c1[C@H](Cc1ccc(cc1)Oc1cc(ccc1O)C[C@H]3N(C)CC2)N(C)CC4 | 16.9 µM (inactive) | 12.3 µM (inactive) | 6.52 µM (inactive) | 9.02 µM (inactive) | 29.4 µM (inactive) | 16.7 µM (inactive) | 12.6 µM (inactive) | 16.7 µM (inactive) | 20.9 µM (inactive) | 2.56 µM (inactive) | 23.6 µM (inactive) | 16.5 µM (inactive) | 6.64 µM (inactive) | 16.4 µM (inactive) | 17.4 µM (inactive) | 2.25 µM (inactive) | 12.9 µM (inactive) | 3.23 µM (inactive) | 8.99 µM (inactive)
